Results published in ChEMBL document CHEMBL1821642, “Discovery of 7-hydroxy-6-methoxy-2-methyl-3-(3,4,5-trimethoxybenzoyl)benzo[b]furan (BNC105), a tubulin polymerization inhibitor with potent antiproliferative and tumor vascular disrupting properties” (J Med Chem, 2011).
The source made the active and inactive calls. The calls are words filed in the database; no cut-off is given here.

What was measured:
HUVEC [1] = assay: Selectivity ratio of IC50 for HUVEC grown in absence of growth factors to IC50 for HUVEC grown in presence of growth factors; format: functional, Homo sapiens
HUVEC [2] = assay: Antiproliferative activity against HUVEC grown in presence of growth factors after 48 hrs by spectrophotometry; format: functional, cell-based; settings: Homo sapiens, read-out: IC50
HUVEC [3] = assay: Antiproliferative activity against HUVEC grown in absence of growth factors after 48 hrs by spectrophotometry; format: functional, cell-based; settings: Homo sapiens
MDA-MB-231 = assay: Antitumor activity against human MDA-MB-231 xenografted in mouse assessed as tumor growth inhibition at 150 mg/kg administered on day 1 and 5; format: functional, organism-based; parameters: dose 150 mg/kg
MCF7 = assay: Antiproliferative activity against human MCF7 cells assessed after 48 hrs by spectrophotometry; format: functional, cell-based; settings: MCF7, 48 h
[4] = Inhibition of tubulin polymerization by spectrophotometry
786-0 [5] = assay: Antiproliferative activity against MDR-1 overexpressing human 786-0 cells in presence of MDR1 inhibitor verapamil; format: functional, cell-based
786-0 [6] = assay: Antiproliferative activity against MDR-1 overexpressing human 786-0 cells; format: functional, cell-based

SMILES | Ratio IC50 (HUVEC [1]) | IC50 (HUVEC [2]) [µM] | IC50 (HUVEC [3]) [µM] | growth inhibition (GI) (MDA-MB-231) | IC50 (MCF7) [µM] | IC50 [4] [µM] | IC50 (786-0 [5]) [µM] | IC50 (786-0 [6]) [µM]
COc1cc(C(=O)c2c(NCCO)oc3c(O)c(OC)ccc23)cc(OC)c1OC | 0.9 | 0.0031 | 0.0029 |  |  |  |  | 
COc1cc(C(=O)c2c(N)oc3c(O)c(OC)ccc23)cc(OC)c1OC | 4.6 | 0.0019 | 0.0088 |  |  |  |  | 
COc1ccc(/C=C\c2cc(OC)c(OC)c(OC)c2)cc1OP(=O)(O)O |  |  |  | Active |  |  |  | 
COc1ccc2c(C(=O)c3cc(OC)c(OC)c(OC)c3)c(-c3ccc(OC)c(N)c3)oc2c1 | 1.4 | 0.032 | 0.044 |  | 0.026 | 1.9 |  | 
COc1cc(C(=O)c2c(-c3cnn(C)c3)oc3c(OC(C)C)c(OC)ccc23)cc(OC)c1OC | 0.6 | 0.665 | 0.419 |  | 0.042 |  |  | 
COc1cc(C(=O)c2c(-c3cnn(C)c3)oc3c(O)c(OC)ccc23)cc(OC)c1OC | 1.8 | 0.0004 | 0.0007 |  | 0.001 | 1.3 |  | 
CC[C@]1(O)C[C@@H]2CN(CCc3c([nH]c4ccccc34)[C@@](C(=O)OC)(c3cc4c(cc3OC)N(C)[C@H]3[C@@](O)(C(=O)OC)[C@H](OC(C)=O)[C@]5(CC)C=CCN6CC[C@]43[C@@H]65)C2)C1 [VINBLASTINE] |  |  |  |  |  |  | 0.00031 | 0.0045
COc1cc(C(=O)c2c(NCCN(C)C)oc3c(O)c(OC)ccc23)cc(OC)c1OC | 1.2 | 0.029 | 0.036 |  |  |  |  | 
COc1cc(C(=O)c2c(C#N)oc3c(O)c(OC)ccc23)cc(OC)c1OC | 2.7 | 0.0011 | 0.003 |  |  |  |  | 
COc1ccc2c(C(=O)c3cc(OC)c(OC)c(OC)c3)c(-c3ccc4c(ccn4C)c3)oc2c1 | 0.8 | 0.041 | 0.032 |  |  | 1.3 |  | 
COc1ccc(-c2oc3c(O)c(OC)ccc3c2C(=O)c2cc(OC)c(OC)c(OC)c2)cc1O | 2 | 0.0017 | 0.0034 |  | 0.004 | 0.8 |  | 
COc1ccc2c(C(=O)c3cc(OC)c(OC)c(OC)c3)c(-c3ccc(OC)nc3)oc2c1 | 0.6 | 0.045 | 0.027 |  | 0.071 |  |  | 
COc1ccc2c(C(=O)c3cc(OC)c(OC)c(OC)c3)coc2c1 | 1.4 | 0.045 | 0.063 |  | 0.055 | 1.6 |  | 
COc1ccc2c(C(=O)c3cc(OC)c(OC)c(OC)c3)c(-c3ccc(O)cc3)oc2c1 | 1.1 | 0.03 | 0.034 |  | 0.048 | 2.3 |  | 
